# Data taken from the NIST ThermoML archive (doi:10.1021/je100687x).
# ± gives the expanded uncertainty stated by the source.
# Experiment: xn = mol fraction of the nth substance listed
# Conditions: 101 kPa, Liquid; for electrical conductivity: Crison GLP 31+ conductivimeter
smiles,measurement,setting,value
CCCCCCCC[n+]1ccn(C)c1.F[B-](F)(F)F [1-methyl-3-octylimidazolium tetrafluoroborate] + CCO,viscosity,"288.15 K, x2 = 0",686 ± 190 mPa·s
same,viscosity,"288.15 K, x2 = 0.0891",428.3 ± 99 mPa·s
same,viscosity,"288.15 K, x2 = 0.1902",244.7 ± 42 mPa·s
same,viscosity,"288.15 K, x2 = 0.2927",141 ± 16 mPa·s
same,viscosity,"288.15 K, x2 = 0.3914",73.44 ± 3.2 mPa·s
same,viscosity,"288.15 K, x2 = 0.4911",45.24 ± 1.4 mPa·s
same,viscosity,"288.15 K, x2 = 0.5938",26.02 ± 0.81 mPa·s
same,viscosity,"288.15 K, x2 = 0.6979",14.53 ± 0.46 mPa·s
same,viscosity,"288.15 K, x2 = 0.798",7.219 ± 0.24 mPa·s
same,viscosity,"288.15 K, x2 = 0.9002",3.499 ± 0.13 mPa·s
same,electrical conductivity,"298.15 K, x2 = 0",0.069 ± 0.001 S/m
same,electrical conductivity,"298.15 K, x2 = 0.1236",0.108 ± 0.001 S/m
same,electrical conductivity,"298.15 K, x2 = 0.183",0.143 ± 0.001 S/m
same,electrical conductivity,"298.15 K, x2 = 0.2395",0.191 ± 0.001 S/m
same,electrical conductivity,"298.15 K, x2 = 0.2898",0.239 ± 0.001 S/m
same,electrical conductivity,"298.15 K, x2 = 0.3359",0.291 ± 0.001 S/m
same,electrical conductivity,"298.15 K, x2 = 0.4147",0.396 ± 0.001 S/m
same,electrical conductivity,"298.15 K, x2 = 0.4783",0.5 ± 0.001 S/m
same,electrical conductivity,"298.15 K, x2 = 0.5316",0.59 ± 0.001 S/m
same,electrical conductivity,"298.15 K, x2 = 0.5759",0.672 ± 0.001 S/m
same,electrical conductivity,"298.15 K, x2 = 0.6135",0.737 ± 0.001 S/m
same,electrical conductivity,"298.15 K, x2 = 0.6455",0.786 ± 0.001 S/m
same,electrical conductivity,"298.15 K, x2 = 0.6799",0.834 ± 0.001 S/m
same,electrical conductivity,"298.15 K, x2 = 0.7089",0.872 ± 0.001 S/m
same,electrical conductivity,"298.15 K, x2 = 0.7381",0.911 ± 0.001 S/m
same,electrical conductivity,"298.15 K, x2 = 0.7667",0.918 ± 0.001 S/m
same,electrical conductivity,"298.15 K, x2 = 0.7922",0.926 ± 0.001 S/m
same,electrical conductivity,"298.15 K, x2 = 0.8138",0.92 ± 0.001 S/m
same,electrical conductivity,"298.15 K, x2 = 0.832",0.903 ± 0.001 S/m
same,electrical conductivity,"298.15 K, x2 = 0.8472",0.882 ± 0.001 S/m
same,electrical conductivity,"298.15 K, x2 = 0.8663",0.844 ± 0.001 S/m
same,electrical conductivity,"298.15 K, x2 = 0.8814",0.8 ± 0.001 S/m
same,electrical conductivity,"298.15 K, x2 = 0.8938",0.762 ± 0.001 S/m
same,electrical conductivity,"298.15 K, x2 = 0.9087",0.696 ± 0.001 S/m
same,electrical conductivity,"298.15 K, x2 = 0.9197",0.639 ± 0.001 S/m
same,electrical conductivity,"298.15 K, x2 = 0.9307",0.583 ± 0.001 S/m
same,electrical conductivity,"298.15 K, x2 = 0.9409",0.526 ± 0.001 S/m
same,electrical conductivity,"298.15 K, x2 = 0.9502",0.454 ± 0.002 S/m
same,electrical conductivity,"298.15 K, x2 = 0.9586",0.393 ± 0.002 S/m
same,electrical conductivity,"298.15 K, x2 = 0.9692",0.304 ± 0.002 S/m
same,electrical conductivity,"298.15 K, x2 = 0.9771",0.239 ± 0.002 S/m
same,electrical conductivity,"298.15 K, x2 = 0.9851",0.155 ± 0.002 S/m
same,electrical conductivity,"298.15 K, x2 = 0.9915",0.0924 ± 0.0021 S/m
same,viscosity,"298.15 K, x2 = 0",337.4 ± 70 mPa·s
same,viscosity,"298.15 K, x2 = 0.0891",224.8 ± 37 mPa·s
same,viscosity,"298.15 K, x2 = 0.1902",140.9 ± 16 mPa·s
same,viscosity,"298.15 K, x2 = 0.2927",83.3 ± 4.7 mPa·s
same,viscosity,"298.15 K, x2 = 0.3914",46.35 ± 1.4 mPa·s
same,viscosity,"298.15 K, x2 = 0.4911",29.85 ± 0.93 mPa·s
same,viscosity,"298.15 K, x2 = 0.5938",17.84 ± 0.56 mPa·s
same,viscosity,"298.15 K, x2 = 0.6979",10.39 ± 0.34 mPa·s
same,viscosity,"298.15 K, x2 = 0.798",5.362 ± 0.18 mPa·s
same,viscosity,"298.15 K, x2 = 0.9002",2.764 ± 0.11 mPa·s
same,viscosity,"308.15 K, x2 = 0",187.7 ± 27 mPa·s
same,viscosity,"308.15 K, x2 = 0.0891",132.1 ± 14 mPa·s
same,viscosity,"308.15 K, x2 = 0.1902",85.86 ± 5.1 mPa·s
same,viscosity,"308.15 K, x2 = 0.2927",53.62 ± 1.2 mPa·s
same,viscosity,"308.15 K, x2 = 0.3914",31.24 ± 0.97 mPa·s
same,viscosity,"308.15 K, x2 = 0.4911",20.79 ± 0.65 mPa·s
same,viscosity,"308.15 K, x2 = 0.5938",12.87 ± 0.41 mPa·s
same,viscosity,"308.15 K, x2 = 0.6979",7.756 ± 0.26 mPa·s
same,viscosity,"308.15 K, x2 = 0.798",4.135 ± 0.15 mPa·s
same,viscosity,"308.15 K, x2 = 0.9002",2.206 ± 0.09 mPa·s
same,viscosity,"318.15 K, x2 = 0",112.1 ± 9.9 mPa·s
same,viscosity,"318.15 K, x2 = 0.0891",81.45 ± 4.4 mPa·s
same,viscosity,"318.15 K, x2 = 0.1902",56.18 ± 1.3 mPa·s
same,viscosity,"318.15 K, x2 = 0.2927",36.49 ± 1.1 mPa·s
same,viscosity,"318.15 K, x2 = 0.3914",22.1 ± 0.7 mPa·s
same,viscosity,"318.15 K, x2 = 0.4911",15.44 ± 0.49 mPa·s
same,viscosity,"318.15 K, x2 = 0.5938",9.671 ± 0.32 mPa·s
same,viscosity,"318.15 K, x2 = 0.6979",6.015 ± 0.2 mPa·s
same,viscosity,"318.15 K, x2 = 0.798",3.283 ± 0.12 mPa·s
same,viscosity,"318.15 K, x2 = 0.9002",1.802 ± 0.078 mPa·s
